According to patent US20100137261A1, “Method for treating aortic stenosis with non-antibacterial tetracycline formulations” (priority 2004, published 2010):
Structures can show the parent of a compound that is named as a salt. Where two headings read alike, the source gives them in different places.

Assays:
[1] = test system: matrix metalloproteinase-9 (MMP-9) synthesis; assay: Stenotic valve tissue culture, gelatinase (MMP-2 and MMP-9) assay; type: cell-based
Procedure: The study was conducted using tissue collected from four surgically removed, stenotic tricuspid valves. […] Gelatinases (MMP-2 and MMP-9) from the valve tissue samples were assayed. The analyzed bands were related to the total protein measured using a Bio-Rad DC Protein Assay Kit (Bio-Rad, Hercules, Calif.).

[2] = Serum levels after oral dosing in humans; conditions: dose of about 10 to about 20 mg/day
[3] = single dose of two 100 mg minocycline HCl tablets, adult human; cited from earlier work
[4] = 250 mg tetracycline HCl every six hours over a twenty-four hour period; cited from earlier work
[5] = 1 μM, stenotic tricuspid valve tissue incubated for ten days

For `CN(C)[C@@H]1C(O)=C(C(N)=O)C(=O)[C@@]2(O)C(O)=C3C(=O)c4c(O)cccc4[C@@](C)(O)[C@H]3C[C@@H]12` [tetracycline], the MMP-9 inhibitory effect [1, 5] was “no significant inhibitory effect” and the “expression of MMP-9 / MMP-9 synthesis” value ([1]; 30 μM, stenotic tricuspid valve tissue incubated for ten days) was “had an inhibitory effect on MMP-9 synthesis, but only at the end of the culture”.

With `NC(=O)C1=C(O)C[C@@H]2C[C@@H]3Cc4cccc(O)c4C(=O)C3=C(O)[C@]2(O)C1=O` [CMT-3, 6-demethyl-6-deoxy-4-de(dimethylamino)tetracycline] the MMP-9 inhibitory effect [1] was “inhibitory effect was seen”, the “comparative efficiency of impact on MMP-9 synthesis” value [1] was “most efficient inhibitor of MMP-9 synthesis” and the “expression of MMP-9 / MMP-9 synthesis” value [1] was “decreased significantly from day 6 to the end of the culture”. For the same compound, the “serum levels in humans” value [2] was “about 1.0 μg/ml”.

For `CC1c2cccc(O)c2C(=O)C2=C(O)C3(O)C(=O)C(C(N)=O)=C(O)CC3C(O)C21` (stereo not drawn) [CMT-8, 4-dedimethylaminodoxycycline], the MMP-9 inhibitory effect [1, 5] was “inhibitory effect was seen”.

For `CN(C)c1ccc(O)c2c1C[C@H]1C[C@H]3[C@H](N(C)C)C(O)=C(C(N)=O)C(=O)[C@@]3(O)C(O)=C1C2=O` [minocycline HCl], the “minocycline serum level (average)” value [3] is given as 2.24 µg/mL.

In the case of `CN(C)[C@@H]1C(O)=C(C(N)=O)C(=O)[C@@]2(O)C(O)=C3C(=O)c4c(O)cccc4[C@@](C)(O)[C@H]3C[C@@H]12` [tetracycline HCl], the peak plasma concentration [4] is listed as “approximately 3 μg/ml”.
